Data as given in US9351952B2, “Use of hesperetin” (NATURAL MEDICINE INSTITUTE OF ZHEJIANG YANGSHENGTANG CO., …, priority 2010, dated 2016).

Tested on: skin microcirculation in domestic rabbits
Assay: Effect of topical application of hesperetin on skin microcirculation by Laser Doppler Flowmetery
Type: in vivo, Oryctolagus cuniculus
Conditions: smearing the backs of rabbits with samples of different concentrations
Text: The experimental method for promoting microcirculation: Male Oryctolagus cuniculus weighted 3.0-3.5 kg were used. After shaving the hair on the back of the Oryctolagus cuniculus, 10 points for testing blood flow were marked with a marker pen on the hairless skin of the rabbit, i.e. 5 points for each of the right side and the left side, and aorta was avoided when drawing the points. Before smearing the sample, the basic values of blood flow at the 10 points of rabbits of each experimental group were determined by Laser Doppler Flowmetery. […] 2% solution was orally administrated by a similar method in a volume 100 times compared to the volume used in the group wherein the 2% solution was administered by smearing. After administration, the blood flow value was determined every hour at the same point by Laser Doppler Flowmetery for 24 h, and the variation index of blood flow was calculated to evaluate the effect of hesperetin on the back blood of rabbits, wherein a higher variation index of blood flow indicates a better effect of promoting microcirculation. The experimental results were statistically analyzed by SPSS11.5 software, t-test was applied to the measured data to evaluate the experimental results. When P<0.1, the data may be regarded as statistically significant. In the results of Table 1, all the time points at with P<0.1 in the 24-h test were listed.

COc1ccc([C@@H]2CC(=O)c3c(O)cc(O)cc3O2)cc1O [Hesperetin]
blood flow in skin microvessels as compared to the blank side: significantly enhanced
